Laboratory results published in patent US10711006B2, “Selective Bruton's tyrosine kinase inhibitor and use thereof” (HANGZHOU HERTZ PHARMACEUTICAL CO., LTD., priority 2016, dated 2020).

Key:
BTK Kinase = BTK Kinase (Homo sapiens (Human), UniProt Q06187); experiment: In-vitro Btk kinase inhibitory activity assay; type: biochemical
Method: In-Vitro Btk Kinase Inhibitory Activity Assay for Compounds of the Present Invention:
10 μL of the 50× drug stock solution was added to a 96-well plate and then 90 μL of a 1× Kinase Buffer was added and the 96-well plate was shaken for 10 minutes on a shaker. From each well of the 96-well plate, 5 μL of the drug solution was taken and then transferred to a 384-well plate which was provided with 2 duplicate wells.
Preparation of a 2.5× Kinase Buffer: an enzyme was added to the 1× kinase base buffer.
Prepare a 2.5× oligopeptide solution: FAM-labeled oligopeptide and ATP were added to the 1× kinase base buffer.
10 μL of the 2.5× Kinase Buffer was added to the 384-well plate loaded with 5 μL of the drug solution and incubation was then carried out for 10 minutes at room temperature. 10 μL of the 2.5× oligopeptide solution was added to the 384-well plate and incubation was then carried out for 1 hour at 28° C. The reaction was stopped by adding 25 μL of a stop buffer. The readings were recorded and the inhibition rate of the compound on the enzyme was calculated. The IC50 of BTK kinase was calculated by fitting.

HCK = HCK (Homo sapiens (Human), UniProt P08631); experiment: Kinase selectivity experiment, HCK; type: biochemical; settings: read-out: Inhibitory activity against HCK (IC50)
HCK, sequence (P08631 whole entry, species assumed): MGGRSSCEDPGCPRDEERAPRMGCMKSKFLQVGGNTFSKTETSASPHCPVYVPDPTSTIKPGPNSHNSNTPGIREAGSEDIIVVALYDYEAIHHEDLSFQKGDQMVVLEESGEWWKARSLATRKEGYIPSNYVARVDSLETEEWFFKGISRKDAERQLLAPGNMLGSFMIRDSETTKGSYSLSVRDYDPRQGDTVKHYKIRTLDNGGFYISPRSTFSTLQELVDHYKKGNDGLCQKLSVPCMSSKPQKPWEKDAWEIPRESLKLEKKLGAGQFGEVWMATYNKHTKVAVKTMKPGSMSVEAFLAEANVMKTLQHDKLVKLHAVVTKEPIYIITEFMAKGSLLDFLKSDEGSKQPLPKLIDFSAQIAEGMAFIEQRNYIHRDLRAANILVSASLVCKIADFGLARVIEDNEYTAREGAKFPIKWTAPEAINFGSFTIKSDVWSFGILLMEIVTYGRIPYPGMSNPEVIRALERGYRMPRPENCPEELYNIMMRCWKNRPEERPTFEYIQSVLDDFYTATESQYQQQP
Method: (§1) A 1× kinase base buffer and a reaction stop buffer for respective kinases in the experiment were prepared as required.
(§2) Preparation of Compounds to be Tested:
(§3) 2) diluting each compound at a 5-fold concentration gradient in a 96-well plate to 6 to 7 concentrations and ensuring that the drug volume in each well was 10 μl; and at the same time adding 100 μl of DMSO to prepare a blank control group and also preparing a negative control group without the enzyme substrate; and
(§4) 3) preparing another 96-well plate, adding 10 μl of each of the above compounds to 90 μl of the 1× kinase base buffer and mixing for 10 minutes to be uniform.
(§5) Preparation of the Plate to be Tested:
(§6) 1) 5 μl of the mixed solution prepared as above in the 96-well plate was taken and transferred to a 384-well plate, with two replicate wells for each compound.
(§7) 1) Preparing a 2.5× kinase solution and adding a corresponding 1× kinase base buffer;
(§8) 2) preparing a 2.5× polypeptide solution and adding FAM-labeled polypeptide and ATP in the 1× kinase base buffer; and
(§9) 3) adding 10 μl of 2.5× kinase solution to a 384-well plate to be tested, placing in a room-temperature environment for 10 minutes, and then adding 10 μl of the 2.5× polypeptide solution, reacting at 28° C. for 1 hour, and then adding 25 μl of a reaction stop buffer.
(§10) The Caliper program reads the plate and uses the data to obtain the IC50 values of the corresponding compounds against kinases.

JAK3 = JAK3 (Homo sapiens (Human), UniProt P52333); experiment: Kinase selectivity experiment, JAK3; type: biochemical; settings: read-out: Inhibitory activity against JAK3 (IC50)
JAK3, sequence (P52333 whole entry, species assumed): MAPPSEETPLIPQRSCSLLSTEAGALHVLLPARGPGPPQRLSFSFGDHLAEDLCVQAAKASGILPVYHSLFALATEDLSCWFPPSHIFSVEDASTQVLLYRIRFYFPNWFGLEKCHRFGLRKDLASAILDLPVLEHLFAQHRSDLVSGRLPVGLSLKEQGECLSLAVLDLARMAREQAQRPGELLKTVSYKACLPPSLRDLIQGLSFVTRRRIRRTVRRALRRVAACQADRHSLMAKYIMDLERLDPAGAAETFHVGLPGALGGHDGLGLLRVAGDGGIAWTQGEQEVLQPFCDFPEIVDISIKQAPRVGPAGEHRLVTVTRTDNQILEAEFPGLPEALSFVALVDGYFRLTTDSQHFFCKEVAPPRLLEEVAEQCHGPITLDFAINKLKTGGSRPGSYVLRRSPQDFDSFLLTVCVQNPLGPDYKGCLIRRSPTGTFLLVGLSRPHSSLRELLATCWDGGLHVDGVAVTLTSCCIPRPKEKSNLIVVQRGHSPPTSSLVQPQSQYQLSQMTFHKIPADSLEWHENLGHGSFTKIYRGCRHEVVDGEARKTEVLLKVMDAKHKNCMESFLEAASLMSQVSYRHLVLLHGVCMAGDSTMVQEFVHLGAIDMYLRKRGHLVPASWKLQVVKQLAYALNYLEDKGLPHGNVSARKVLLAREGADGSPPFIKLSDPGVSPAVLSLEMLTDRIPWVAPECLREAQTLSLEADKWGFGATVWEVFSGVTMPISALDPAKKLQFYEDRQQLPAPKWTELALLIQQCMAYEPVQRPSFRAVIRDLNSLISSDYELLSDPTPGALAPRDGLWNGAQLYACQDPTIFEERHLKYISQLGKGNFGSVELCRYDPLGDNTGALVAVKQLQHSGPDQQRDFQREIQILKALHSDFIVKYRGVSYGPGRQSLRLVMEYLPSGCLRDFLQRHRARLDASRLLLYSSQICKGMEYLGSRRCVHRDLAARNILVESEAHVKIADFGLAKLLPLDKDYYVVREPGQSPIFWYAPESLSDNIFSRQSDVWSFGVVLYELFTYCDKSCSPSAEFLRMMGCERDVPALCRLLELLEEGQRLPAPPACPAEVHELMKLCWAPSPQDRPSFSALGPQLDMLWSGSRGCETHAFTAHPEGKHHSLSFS
Method: as §1, §2, §3, §4, §5, §6, §7, §8, §9, §10

[1] = test system: arthritis induced by anti-collagen antibodies and lipopolysaccharides; experiment: Rheumatoid arthritis model induced by anti-collagen antibodies and lipopolysaccharides; type: in vivo, Balb/c mice; settings: for level of IL-1β in serum (in words): 10 mg/kg orally once a day; for level of IL-1β in serum (in words) / inflammatory cell infiltration, synovial hyperplasia, inflammatory granulation tissue formation, necrotic tissue: versus model group; for IL-1β: serum on Day 13, 10 mg/kg orally once a day Day 2 to Day 12; for inflammatory cell infiltration, synovial hyperplasia, inflammatory granulation tissue formation, necrotic tissue: tissue samples after treatment
Method: In Balb/c mice, arthritis was induced by administration of anti-collagen antibodies and lipopolysaccharides (Nandakumar et al., Am. J. Pathol. 2003, 163: 1827-1837).
The specific method was as follows: On Day 0, female Balb/c mice were intravenously injected with anti-type II collagen ChemicomAb mixture in a dose of 100 mg/kg, and on Day 1, lipopolysaccharide was intraperitoneally injected in a dose of 1.25 mg/kg. From Day 2 to Day 12, Compounds 15a, 17a, 24a and 24e were orally administered once a day in a dose of 10 mg/kg. On Day 13 after abdominal anesthesia, […] of blood was taken from the femoral artery and centrifuged at 3000 r/min for 20 minutes, serum was taken to detect IL-1β with a test kit, and related tissue samples were observed.

[2] = test system: human lung cancer cell (A549); experiment: In-vitro tumor cell proliferation inhibition (CCK-8), A549; settings: A549, 72 h, read-out: Tumor cell proliferation inhibitory activity (IC50, μM) A549
Method: (§11) The in-vitro antitumor activity assay was carried out on the synthesized compound by using different solid tumors and leukemia cell lines:
(§12) Cell lines: human lung cancer cell (A549), human mantle cell lymphoma (MINO), diffuse giant B-cell lymphoma (OCI-LY10), and human diffuse large B lymphoma (TMD-8).
(§13) Preparation method of the drug: the drug was dissolved in DMSO to make a 10 mM stock solution, and then the stock solution was diluted in a certain ratio to obtain 5 different concentrations (test concentration 100×). In-vitro culture of tumor cells:
(§14) The tumor cells A549, MINO, OCI-LY10, and TMD-8 were seeded in a 96-well plate at 4000 cells/200 μL/well and then incubated overnight at 37° C. in a 5% CO2 cell culture incubator. 2 μL of the compound was added to each well to final concentrations of 50 μM, 10 μM, 2 μM, 0.4 μM, and 0.08 μM and then incubated for 72 hours at 37° C. in a 5% CO2 cell incubator, with DMSO (2%) as a control group. […] Wells loaded with the corresponding amount of cell culture fluid the and CCK-8 solution but no cells were considered as blank controls. The absorbance (OD value) was measured at 450 nm using a microplate reader, and the obtained data was used to calculate IC50.

[3] = test system: human mantle cell lymphoma (MINO); experiment: In-vitro tumor cell proliferation inhibition (CCK-8), MINO; settings: 72 h, read-out: Tumor cell proliferation inhibitory activity (IC50, μM) MINO
Method: as §11, §12, §13, §14

[4] = test system: human diffuse large B lymphoma (TMD-8); experiment: In-vitro tumor cell proliferation inhibition (CCK-8), TMD-8; settings: TMD8, 72 h, read-out: Tumor cell proliferation inhibitory activity (IC50, nM) TMD-8

BTK Kinase, sequence (Q06187 whole entry): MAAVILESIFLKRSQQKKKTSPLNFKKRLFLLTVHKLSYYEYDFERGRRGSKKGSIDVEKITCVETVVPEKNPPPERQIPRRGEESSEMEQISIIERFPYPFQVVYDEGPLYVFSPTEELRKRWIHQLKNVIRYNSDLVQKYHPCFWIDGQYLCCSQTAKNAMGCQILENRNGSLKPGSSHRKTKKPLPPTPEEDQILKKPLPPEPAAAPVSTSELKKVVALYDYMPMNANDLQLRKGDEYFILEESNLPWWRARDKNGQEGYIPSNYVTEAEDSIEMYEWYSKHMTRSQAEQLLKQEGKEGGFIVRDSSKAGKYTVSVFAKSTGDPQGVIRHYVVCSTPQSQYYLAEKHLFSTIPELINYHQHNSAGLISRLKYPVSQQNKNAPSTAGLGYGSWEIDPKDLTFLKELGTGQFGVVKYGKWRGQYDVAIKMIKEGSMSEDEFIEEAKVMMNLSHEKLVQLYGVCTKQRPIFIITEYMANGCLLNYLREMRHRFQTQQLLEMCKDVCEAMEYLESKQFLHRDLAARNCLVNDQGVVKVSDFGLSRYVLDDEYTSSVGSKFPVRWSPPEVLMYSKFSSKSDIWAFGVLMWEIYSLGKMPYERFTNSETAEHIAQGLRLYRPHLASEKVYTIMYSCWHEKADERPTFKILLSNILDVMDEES

| IC50 (BTK Kinase) [nM] | IC50 (HCK) [nM] | IC50 (JAK3) [nM] | IC50 [2] [µM] | IC50 [3] [µM] | IC50 [4] [nM] | SMILES | level of IL-1β in serum (in words) [1] | IL-1β [1] [ng/L] | inflammatory cell infiltration, synovial hyperplasia, inflammatory granulation tissue formation, necrotic tissue [1] |
| --- | --- | --- | --- | --- | --- | --- | --- | --- | --- |
| 3.2 | > 1000 | > 1000 | 1.56 | 6.17 | 8.16 | C=CC(=O)N1CCC[C@@H](n2nc(-c3ccc(Oc4ccccc4)nc3)c3c(N)ncnc32)C1 [Compound 15a, (R)-1-(3-(4-amino-3-(6-phenoxypyridin-3-yl)-1H-pyrazolo[3,4-d]pyrimidin-1-yl)piperidin-1-yl) prop-2-en-1-one] | significantly reduce | 18.72 ± 6.6 | significantly improved |
| 2.5 | > 1000 | > 1000 | 2.11 | 9.46 | 16.9 | C=CC(=O)N1CC[C@@H](n2nc(-c3ccc(Oc4ccccc4)nc3F)c3c(N)ncnc32)C1 [Compound 24a, (R)-1-(3-(4-amino-3-(2-fluoro-6-phenoxypyridin-3-yl)-1H-pyrazolo[3,4-d]pyrimidin-1-yl)pyrrolidin-1-yl)prop-2-en-1-one] | significantly reduce | 19.32 ± 4.2 | significantly improved |
